The record followed here is US9115137B2, “2,3,4,5-tetrahydro-1H-pyrido[4,3-B]indole compounds and methods of use thereof” (priority 2008, dated 2015).

The test system of experiment [1] is rat central imidazoline I2 receptor. Kind of experiment: Central imidazoline I2 radioligand binding ([3H]Idazoxan). The settings on record: compound at 1 μM; Wistar Rat cerebral cortex. On the procedure: To evaluate in radioligand binding assays the activity of compounds of the invention, rat central imidazoline I2 receptor obtained from Wistar Rat cerebral cortex (Brown, C. M. et al., Br. J. Pharmacol. 99:803, 1990) in a modified Tris-HCl buffer (50 mM Tris-HCl buffer, pH 7.4, 0.5 mM EDTA) was used. Compounds of the invention were incubated with 2 nM [^3H]Idazoxan for 30 minutes at 25° C. Non-specific binding was estimated in the presence of 1 μM Idazoxan. Receptor proteins were filtered and washed, the filters were then counted to determine [^3H]Idazoxan specifically bound. Compounds were screened at 1 μM or lower, using 1% DMSO as vehicle. Compounds of the invention were tested in this biochemical assay and percent inhibition of specific binding was determined. Biochemical assay results are presented as the percent inhibition of specific binding in Table 5.

The target in experiment [2] is T1, human recombinant dopamine D2L receptor (Homo sapiens, UniProt P14416).
T1 construct: expressed in transfected cells; host or cells: CHO cells
Kind of experiment: Dopamine D2L radioligand binding ([3H]Spiperone). The settings on record: compound at 1 μM; CHO cells; read-out: Dopamine (1 μM) D2L, percent inhibition of specific binding. On the procedure: To evaluate in radioligand binding assays the activity of compounds of the invention, human recombinant dopamine D2L receptor expressed in Chinese hamster ovary (CHO) cells (Grandy, D. K. et al. Proc. Natl. Acad. Sci. USA. 86:9762, 1989; Hayes, G. et al., Mol. Endocrinol. 6:920, 1992) in a modified Tris-HCl buffer (50 mM Tris-HCl, pH 7.4, 1.4 mM Ascorbic Acid, 0.001% BSA, 150 mM NaCl) was used. Compounds of the invention were incubated with 0.16 nM [^3H]Spiperone for 120 minutes at 25° C. Non-specific binding was estimated in the presence of 10 μM Haloperidol. Receptor proteins were filtered and washed, the filters were then counted to determine [^3H]Spiperone specifically bound. Compounds were screened at 1 μM or lower, using 1% DMSO as vehicle. Biochemical assay results are presented as the percent inhibition of specific binding in Table 6.

T1 sequence (P14416 whole entry): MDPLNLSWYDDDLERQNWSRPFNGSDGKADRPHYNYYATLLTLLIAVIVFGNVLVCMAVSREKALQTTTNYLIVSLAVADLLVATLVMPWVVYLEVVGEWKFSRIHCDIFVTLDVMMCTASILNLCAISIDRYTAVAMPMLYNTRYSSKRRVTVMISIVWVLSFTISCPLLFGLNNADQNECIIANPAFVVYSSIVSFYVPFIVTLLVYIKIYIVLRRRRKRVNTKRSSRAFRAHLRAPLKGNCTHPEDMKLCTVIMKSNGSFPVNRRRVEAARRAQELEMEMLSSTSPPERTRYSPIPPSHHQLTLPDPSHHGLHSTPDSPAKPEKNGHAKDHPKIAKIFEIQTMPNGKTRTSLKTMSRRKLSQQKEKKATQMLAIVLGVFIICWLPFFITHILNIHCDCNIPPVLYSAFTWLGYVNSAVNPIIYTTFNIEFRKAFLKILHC

Regarding `Cc1ccc2c(c1)c1c(n2CC(=O)NCc2ccccc2)CCN(C)C1` [Compound 25, N-benzyl-2-(1,2,3,4-tetrahydro-2,8-dimethylpyrido[4,3-b]indol-5-yl)acetamide], the “Imidazoline I2 Central (1 μM), percent inhibition of specific binding” value in experiment [1] is on record as 18%. Further, the inhibition at 1 µM in experiment [2] is -3%.

For the compound `Cc1ccc2c(c1)c1c(n2CCNC(=O)c2ccc(F)cc2Cl)CCN(C)C1` [Compound 63, 2-chloro-4-fluoro-N-(2-(1,2,3,4-tetrahydro-2,8-dimethylpyrido[4,3-b]indol-5-yl)ethyl)benzamide], in experiment [1], the “Imidazoline I2 Central (1 μM), percent inhibition of specific binding” value is reported as 41%. The inhibition at 1 µM in experiment [2] is 7%.

Consider `Cc1ccc2c(c1)c1c(n2CCC(=O)NCC2CCCCC2)CCN(C)C1` [Compound 30, N-(cyclohexylmethyl)-3-(1,2,3,4-tetrahydro-2,8-dimethylpyrido[4,3-b]indol-5-yl)propanamide], for which the “Imidazoline I2 Central (1 μM), percent inhibition of specific binding” value in experiment [1] worked out at 61%. Moreover, the inhibition at 1 µM in experiment [2] is 7%.

`CCOC(=O)Cn1c2c(c3cc(Cl)ccc31)CN(C)CC2` [Compound 10, ethyl 2-(8-chloro-1,2,3,4-tetrahydro-2-methylpyrido[4,3-b]indol-5-yl)acetate]: in experiment [1], the “Imidazoline I2 Central (1 μM), percent inhibition of specific binding” value is 25%. Moreover, the inhibition at 1 µM in experiment [2] stood at 12%.

`CCNC(=O)Cn1c2c(c3cc(C)ccc31)CN(C)CC2` [Compound 22, N-ethyl-2-(1,2,3,4-tetrahydro-2,8-dimethylpyrido[4,3-b]indol-5-yl)acetamide]: the “Imidazoline I2 Central (1 μM), percent inhibition of specific binding” value in experiment [1] is recorded as 51%. Also, the inhibition at 1 µM in experiment [2] was -2%.

For the compound `Cc1ccc2c(c1)c1c(n2CC(N)=O)CCN(C)C1` [Compound 64, 2-(1,2,3,4-tetrahydro-2,8-dimethylpyrido[4,3-b]indol-5-yl)acetamide], in experiment [1], the “Imidazoline I2 Central (1 μM), percent inhibition of specific binding” value turned out to be 16%. For the same compound, in experiment [2], the inhibition at 1 µM is 2%.

In the case of `Cc1ccc2c(c1)c1c(n2CCC(=O)NCc2ccccc2)CCN(C)C1` [Compound 59, N-benzyl-3-(1,2,3,4-tetrahydro-2,8-dimethylpyrido[4,3-b]indol-5-yl)propanamide], the “Imidazoline I2 Central (1 μM), percent inhibition of specific binding” value in experiment [1] was 64%. In addition, in experiment [2], the inhibition at 1 µM turned out to be 4%.

For the compound `CN1CCc2c(c3cc(Cl)ccc3n2CC(=O)N(C)C)C1` [Compound 48, 2-(8-chloro-1,2,3,4-tetrahydro-2-methylpyrido[4,3-b]indol-5-yl)-N,N-dimethylacetamide], in experiment [1], the “Imidazoline I2 Central (1 μM), percent inhibition of specific binding” value is recorded as 18%. For the same compound, the inhibition at 1 µM in experiment [2] was -6%.

For `Cc1ccc2c(c1)c1c(n2CCC(=O)O)CCN(C)C1` [CD47, 3-(1,2,3,4-tetrahydro-2,8-dimethylpyrido[4,3-b]indol-5-yl)propanoic acid], in experiment [1], the “Imidazoline I2 Central (1 μM), percent inhibition of specific binding” value was determined as 3%. Besides, the inhibition at 1 µM in experiment [2] stood at 4%.

Turning to `Cc1ccc2c(c1)c1c(n2CC(=O)Nc2ccc(F)cc2)CCN(C)C1` [Compound 51, N-(4-fluorophenyl)-2-(1,2,3,4-tetrahydro-2,8-dimethylpyrido[4,3-b]indol-5-yl)acetamide], in experiment [1], the “Imidazoline I2 Central (1 μM), percent inhibition of specific binding” value stood at 12%. Further, the inhibition at 1 µM in experiment [2] turned out to be 19%.

`CCCCOC(=O)Cn1c2c(c3cc(Cl)ccc31)CN(C)CC2` [Compound 52, butyl 2-(8-chloro-1,2,3,4-tetrahydro-2-methylpyrido[4,3-b]indol-5-yl)acetate]: in experiment [1], the “Imidazoline I2 Central (1 μM), percent inhibition of specific binding” value was found to be 14%. Besides, the inhibition at 1 µM in experiment [2] was 22%.

As for `CN1CCc2c(c3cc(Cl)ccc3n2CCC(=O)N(C)C)C1` [Compound 49, 3-(8-chloro-1,2,3,4-tetrahydro-2-methylpyrido[4,3-b]indol-5-yl)-N,N-dimethylpropanamide], the “Imidazoline I2 Central (1 μM), percent inhibition of specific binding” value in experiment [1] was 58%. The inhibition at 1 µM in experiment [2] was determined as 9%.

For `Cc1ccc2c(c1)c1c(n2CCNC(=O)C2CCNCC2)CCN(C)C1` [Compound 65, N-(2-(1,2,3,4-tetrahydro-2,8-dimethylpyrido[4,3-b]indol-5-yl)ethyl)piperidine-4-carboxamide], in experiment [1], the “Imidazoline I2 Central (1 μM), percent inhibition of specific binding” value was 23%. Besides, the inhibition at 1 µM in experiment [2] was found to be 7%.
